pKi: −log10 of the molar value. Each block holds one molecule with its values, some of them ahead of it. Active and inactive are the calls of the source. The rule behind the calls is not given here.
Assays:
[1] = buffer, pH 7.4
Description: Lipophilicity, log K of the compound in 50 mM PBS at pH 7.4-10 to 60% methanol mixture by HPLC method

[2] = target: T1, D(4) dopamine receptor (Homo sapiens, UniProt P21917); test: biochemical
T1 sequence (P21917 whole entry): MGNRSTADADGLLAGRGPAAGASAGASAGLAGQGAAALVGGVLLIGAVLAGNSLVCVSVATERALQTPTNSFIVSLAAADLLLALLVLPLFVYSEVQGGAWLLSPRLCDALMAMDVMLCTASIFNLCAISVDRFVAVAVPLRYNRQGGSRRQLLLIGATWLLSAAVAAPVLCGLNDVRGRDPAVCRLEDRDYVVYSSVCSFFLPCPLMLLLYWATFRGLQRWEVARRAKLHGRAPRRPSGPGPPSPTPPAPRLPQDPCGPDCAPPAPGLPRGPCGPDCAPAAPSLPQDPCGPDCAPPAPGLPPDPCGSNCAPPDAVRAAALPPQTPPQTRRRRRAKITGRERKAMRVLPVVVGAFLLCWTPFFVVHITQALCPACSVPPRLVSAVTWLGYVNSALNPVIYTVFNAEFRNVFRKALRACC
Description: Displacement of [3H]-YM-09151-2 from human cloned D4 receptor expressed in Sf9 cells after 60 mins by liquid scintillation counting

[3] = target: T2, 5-hydroxytryptamine receptor 1A (Homo sapiens, UniProt P08908); test: biochemical
T2 sequence (P08908 whole entry): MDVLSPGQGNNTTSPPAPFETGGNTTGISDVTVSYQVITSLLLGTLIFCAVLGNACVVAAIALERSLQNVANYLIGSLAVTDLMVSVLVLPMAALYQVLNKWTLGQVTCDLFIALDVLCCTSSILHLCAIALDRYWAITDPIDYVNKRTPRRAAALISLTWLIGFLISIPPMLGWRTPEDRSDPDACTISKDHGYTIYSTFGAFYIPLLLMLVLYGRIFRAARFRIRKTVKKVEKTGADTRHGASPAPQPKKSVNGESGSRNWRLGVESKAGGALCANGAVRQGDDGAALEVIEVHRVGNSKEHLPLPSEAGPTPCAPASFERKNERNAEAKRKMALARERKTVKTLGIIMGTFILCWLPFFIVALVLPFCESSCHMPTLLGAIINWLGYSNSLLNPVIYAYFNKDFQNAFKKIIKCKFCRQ
Description: Displacement of [3H]8-OH-DPAT from human cloned 5-HT1A receptor expressed in CHO cells after 60 mins by liquid scintillation counting

[4] = target: 5-hydroxytryptamine receptor 1B (Homo sapiens) (UniProt P28222); test: Binding affinity to 5HT1B receptor at 10 uM by radioligand binding assay
[5] = target: 5-hydroxytryptamine receptor 2B (Homo sapiens, UniProt P41595); test: Binding affinity to 5HT2B receptor by radioligand binding assay; settings: read-out: Ki(app)
[6] = Binding affinity to rat benzodiazepine binding site at 10 uM by radioligand binding assay
[7] = target: Muscarinic acetylcholine receptor M1 (Homo sapiens) (UniProt P11229); test: Binding affinity to muscarinic M1 receptor at 10 uM by radioligand binding assay
[8] = target: 5-hydroxytryptamine receptor 7 (Homo sapiens, UniProt P34969)
Description: Binding affinity to 5HT7 receptor by radioligand binding assay

[9] = target: Alpha-2B adrenergic receptor (Homo sapiens) (UniProt P18089); test: Binding affinity to adrenergic alpha2B receptor at 10 uM by radioligand binding assay
Alpha-2B adrenergic receptor (Homo sapiens), sequence (P18089 whole entry): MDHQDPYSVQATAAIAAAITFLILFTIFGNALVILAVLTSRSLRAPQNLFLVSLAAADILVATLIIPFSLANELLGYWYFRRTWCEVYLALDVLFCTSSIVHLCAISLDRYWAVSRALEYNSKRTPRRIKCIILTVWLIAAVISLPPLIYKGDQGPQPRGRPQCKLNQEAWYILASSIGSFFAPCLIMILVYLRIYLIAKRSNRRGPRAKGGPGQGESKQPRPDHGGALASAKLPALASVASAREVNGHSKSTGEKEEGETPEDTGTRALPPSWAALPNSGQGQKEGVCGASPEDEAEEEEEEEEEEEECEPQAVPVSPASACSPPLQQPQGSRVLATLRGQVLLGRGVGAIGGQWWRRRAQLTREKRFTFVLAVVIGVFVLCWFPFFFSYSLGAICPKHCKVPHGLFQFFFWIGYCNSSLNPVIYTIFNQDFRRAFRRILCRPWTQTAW

[10] = target: T3, 5-hydroxytryptamine receptor 1A (Rattus norvegicus) (UniProt P19327); test: Antagonist activity of 5-HT1A receptor in Wistar rat dorsal raphe serotonergic neuron assessed as reversal of 8-OH-DPAT-induced decrease in firing rate at 100 nM by electrophysiological test; type: functional; parameters: scale not given: the % may be the effect or the level left
T3 sequence (whole entry): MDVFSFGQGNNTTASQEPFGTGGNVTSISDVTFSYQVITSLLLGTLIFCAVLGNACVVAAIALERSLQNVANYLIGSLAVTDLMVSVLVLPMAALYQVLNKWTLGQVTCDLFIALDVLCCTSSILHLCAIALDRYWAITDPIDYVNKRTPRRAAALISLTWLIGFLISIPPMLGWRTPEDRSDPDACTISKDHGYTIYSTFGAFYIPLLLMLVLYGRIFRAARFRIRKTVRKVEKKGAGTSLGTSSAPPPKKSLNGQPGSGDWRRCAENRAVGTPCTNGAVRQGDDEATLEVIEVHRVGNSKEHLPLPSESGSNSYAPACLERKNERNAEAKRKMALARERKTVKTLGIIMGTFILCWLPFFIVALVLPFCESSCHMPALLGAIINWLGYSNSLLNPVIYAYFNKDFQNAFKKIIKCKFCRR

[11] = target: Alpha-2A adrenergic receptor (Homo sapiens) (UniProt P08913); test: Binding affinity to adrenergic alpha2A receptor at 10 uM by radioligand binding assay
[12] = target: Beta-1 adrenergic receptor (Homo sapiens) (UniProt P08588); test: Binding affinity to adrenergic beta1 receptor at 10 uM by radioligand binding assay
Beta-1 adrenergic receptor (Homo sapiens), sequence (P08588 whole entry, looked up): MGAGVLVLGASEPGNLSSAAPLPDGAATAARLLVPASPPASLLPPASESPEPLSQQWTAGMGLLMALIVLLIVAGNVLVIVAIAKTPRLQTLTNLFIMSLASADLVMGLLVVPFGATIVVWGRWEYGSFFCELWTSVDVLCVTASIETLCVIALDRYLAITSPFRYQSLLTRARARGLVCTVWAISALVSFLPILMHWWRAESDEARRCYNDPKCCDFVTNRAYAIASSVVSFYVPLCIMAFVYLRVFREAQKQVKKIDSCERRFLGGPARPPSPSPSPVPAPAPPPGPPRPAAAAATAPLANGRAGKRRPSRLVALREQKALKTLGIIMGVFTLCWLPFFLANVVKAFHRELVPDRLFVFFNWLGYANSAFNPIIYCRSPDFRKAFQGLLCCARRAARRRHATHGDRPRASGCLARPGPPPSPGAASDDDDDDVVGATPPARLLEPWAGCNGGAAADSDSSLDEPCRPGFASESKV

[13] = target: Alpha-1B adrenergic receptor (Homo sapiens, UniProt P35368)
Alpha-1B adrenergic receptor, sequence (P35368 whole entry): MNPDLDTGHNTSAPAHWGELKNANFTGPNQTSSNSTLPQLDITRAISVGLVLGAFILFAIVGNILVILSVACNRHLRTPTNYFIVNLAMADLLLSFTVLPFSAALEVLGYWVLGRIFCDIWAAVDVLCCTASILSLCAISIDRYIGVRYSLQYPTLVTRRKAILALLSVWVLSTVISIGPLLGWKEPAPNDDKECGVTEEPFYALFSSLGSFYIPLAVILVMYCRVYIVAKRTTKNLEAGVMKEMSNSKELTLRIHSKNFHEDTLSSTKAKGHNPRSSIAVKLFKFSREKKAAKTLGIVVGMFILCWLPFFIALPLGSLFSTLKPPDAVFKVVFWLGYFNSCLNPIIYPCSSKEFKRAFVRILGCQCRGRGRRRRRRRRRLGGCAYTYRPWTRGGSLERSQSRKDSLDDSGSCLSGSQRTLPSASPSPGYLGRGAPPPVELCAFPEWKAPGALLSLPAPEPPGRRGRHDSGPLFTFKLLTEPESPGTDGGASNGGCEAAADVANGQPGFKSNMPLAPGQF
Description: Binding affinity to adrenergic alpha1B receptor by radioligand binding assay

[14] = target: 5-hydroxytryptamine receptor 2C (Homo sapiens) (UniProt P28335); test: Binding affinity to 5HT2C receptor at 10 uM by radioligand binding assay
[15] = target: Muscarinic acetylcholine receptor M4 (Homo sapiens) (UniProt P08173); test: Binding affinity to muscarinic M4 receptor at 10 uM by radioligand binding assay
[16] = target: Sodium-dependent dopamine transporter (Homo sapiens) (UniProt Q01959); test: Binding affinity to DAT at 10 uM by radioligand binding assay
[17] = target: D(2) dopamine receptor (Homo sapiens) (UniProt P14416); test: Binding affinity to dopamine D2 receptor at 10 uM by radioligand binding assay
D(2) dopamine receptor (Homo sapiens), sequence (P14416 whole entry): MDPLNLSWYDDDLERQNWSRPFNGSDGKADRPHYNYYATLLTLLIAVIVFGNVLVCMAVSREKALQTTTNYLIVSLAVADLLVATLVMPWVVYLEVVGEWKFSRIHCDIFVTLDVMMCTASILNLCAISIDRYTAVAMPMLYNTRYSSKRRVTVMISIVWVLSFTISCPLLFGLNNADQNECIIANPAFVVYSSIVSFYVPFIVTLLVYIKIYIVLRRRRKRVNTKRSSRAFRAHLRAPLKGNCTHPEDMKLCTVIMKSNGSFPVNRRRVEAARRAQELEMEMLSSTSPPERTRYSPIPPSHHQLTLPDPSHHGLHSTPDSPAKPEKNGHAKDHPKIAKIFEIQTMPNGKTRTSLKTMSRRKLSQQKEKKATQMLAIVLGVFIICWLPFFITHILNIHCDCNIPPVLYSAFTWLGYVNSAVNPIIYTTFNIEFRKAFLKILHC

[18] = target: D(3) dopamine receptor (Homo sapiens) (UniProt P35462); test: Binding affinity to dopamine D3 receptor at 10 uM by radioligand binding assay
[19] = target: Alpha-1A adrenergic receptor (Homo sapiens, UniProt P35348); test: Binding affinity to adrenergic alpha1A receptor by radioligand binding assay; settings: read-out: Ki(app)
Alpha-1A adrenergic receptor, sequence (P35348 whole entry): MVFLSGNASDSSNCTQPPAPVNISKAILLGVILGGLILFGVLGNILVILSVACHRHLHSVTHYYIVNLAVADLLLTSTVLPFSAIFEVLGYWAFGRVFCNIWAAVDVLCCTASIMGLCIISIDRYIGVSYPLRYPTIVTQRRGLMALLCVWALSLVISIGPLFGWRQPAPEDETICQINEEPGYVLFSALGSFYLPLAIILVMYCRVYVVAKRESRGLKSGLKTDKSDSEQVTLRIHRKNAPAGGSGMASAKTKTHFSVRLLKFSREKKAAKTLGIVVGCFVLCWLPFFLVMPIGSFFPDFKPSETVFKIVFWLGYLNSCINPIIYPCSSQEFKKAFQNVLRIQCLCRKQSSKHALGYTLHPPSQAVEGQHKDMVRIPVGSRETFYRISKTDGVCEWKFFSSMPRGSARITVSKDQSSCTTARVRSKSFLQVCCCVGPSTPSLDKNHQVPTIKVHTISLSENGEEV

[20] = target: 5-hydroxytryptamine receptor 1E (Homo sapiens) (UniProt P28566); test: Binding affinity to 5HT1E receptor at 10 uM by radioligand binding assay
5-hydroxytryptamine receptor 1E (Homo sapiens), sequence (P28566 whole entry): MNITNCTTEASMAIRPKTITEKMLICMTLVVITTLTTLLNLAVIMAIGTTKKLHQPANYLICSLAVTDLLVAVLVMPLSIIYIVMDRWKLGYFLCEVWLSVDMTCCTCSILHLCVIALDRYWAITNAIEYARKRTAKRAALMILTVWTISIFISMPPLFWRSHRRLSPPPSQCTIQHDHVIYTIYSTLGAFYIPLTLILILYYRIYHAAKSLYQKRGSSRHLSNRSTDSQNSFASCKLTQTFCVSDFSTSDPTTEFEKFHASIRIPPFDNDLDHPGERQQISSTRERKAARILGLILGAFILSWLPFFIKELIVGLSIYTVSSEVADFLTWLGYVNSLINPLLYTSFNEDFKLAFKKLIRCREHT

[21] = target: T1, D(4) dopamine receptor
Description: Binding affinity to dopamine D4 receptor by radioligand binding assay

[22] = Binding affinity to sigma 2 receptor at 10 uM by radioligand binding assay
[23] = target: Muscarinic acetylcholine receptor M2 (Homo sapiens) (UniProt P08172); test: Binding affinity to muscarinic M2 receptor at 10 uM by radioligand binding assay
[24] = target: Histamine H3 receptor (Homo sapiens) (UniProt Q9Y5N1); test: Binding affinity to histamine H3 receptor at 10 uM by radioligand binding assay
[25] = Binding affinity to GABAA receptor at 10 uM by radioligand binding assay
[26] = target: Sigma non-opioid intracellular receptor 1 (Homo sapiens) (UniProt Q99720); test: Binding affinity to sigma 1 receptor at 10 uM by radioligand binding assay
[27] = target: Muscarinic acetylcholine receptor M3 (Homo sapiens) (UniProt P20309); test: Binding affinity to muscarinic M3 receptor at 10 uM by radioligand binding assay
[28] = target: Muscarinic acetylcholine receptor M5 (Homo sapiens) (UniProt P08912); test: Binding affinity to muscarinic M5 receptor at 10 uM by radioligand binding assay
Muscarinic acetylcholine receptor M5 (Homo sapiens), sequence (P08912 whole entry): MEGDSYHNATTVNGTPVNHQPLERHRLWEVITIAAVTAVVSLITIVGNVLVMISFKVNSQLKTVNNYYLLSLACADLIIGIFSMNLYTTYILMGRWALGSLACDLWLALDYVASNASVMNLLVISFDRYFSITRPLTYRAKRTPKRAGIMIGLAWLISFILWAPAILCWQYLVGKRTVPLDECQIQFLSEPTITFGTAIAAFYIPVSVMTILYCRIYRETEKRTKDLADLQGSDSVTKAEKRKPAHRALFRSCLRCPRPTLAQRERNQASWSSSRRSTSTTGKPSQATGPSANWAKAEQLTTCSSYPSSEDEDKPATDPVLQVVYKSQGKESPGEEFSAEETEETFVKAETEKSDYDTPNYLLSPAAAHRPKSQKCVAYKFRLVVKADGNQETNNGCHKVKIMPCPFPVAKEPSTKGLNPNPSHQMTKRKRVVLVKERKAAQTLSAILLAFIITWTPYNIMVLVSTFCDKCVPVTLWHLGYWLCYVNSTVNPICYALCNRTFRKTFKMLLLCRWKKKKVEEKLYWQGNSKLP

[29] = target: Beta-2 adrenergic receptor (Homo sapiens) (UniProt P07550); test: Binding affinity to adrenergic beta2 receptor at 10 uM by radioligand binding assay
Beta-2 adrenergic receptor (Homo sapiens), sequence (P07550 whole entry, looked up): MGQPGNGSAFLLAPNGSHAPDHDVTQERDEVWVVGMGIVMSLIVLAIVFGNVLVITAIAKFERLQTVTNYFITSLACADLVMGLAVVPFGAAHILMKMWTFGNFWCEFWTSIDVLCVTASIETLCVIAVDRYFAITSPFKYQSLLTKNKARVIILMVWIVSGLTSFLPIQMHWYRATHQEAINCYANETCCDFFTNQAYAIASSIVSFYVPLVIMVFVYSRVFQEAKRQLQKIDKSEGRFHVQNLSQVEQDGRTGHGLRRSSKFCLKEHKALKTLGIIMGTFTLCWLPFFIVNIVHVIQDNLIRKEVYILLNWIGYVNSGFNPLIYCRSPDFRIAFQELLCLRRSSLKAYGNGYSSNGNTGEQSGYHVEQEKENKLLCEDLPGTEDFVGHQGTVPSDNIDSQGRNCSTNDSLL

[30] = target: D(1A) dopamine receptor (Homo sapiens) (UniProt P21728); test: Binding affinity to dopamine D1 receptor at 10 uM by radioligand binding assay
D(1A) dopamine receptor (Homo sapiens), sequence (P21728 whole entry): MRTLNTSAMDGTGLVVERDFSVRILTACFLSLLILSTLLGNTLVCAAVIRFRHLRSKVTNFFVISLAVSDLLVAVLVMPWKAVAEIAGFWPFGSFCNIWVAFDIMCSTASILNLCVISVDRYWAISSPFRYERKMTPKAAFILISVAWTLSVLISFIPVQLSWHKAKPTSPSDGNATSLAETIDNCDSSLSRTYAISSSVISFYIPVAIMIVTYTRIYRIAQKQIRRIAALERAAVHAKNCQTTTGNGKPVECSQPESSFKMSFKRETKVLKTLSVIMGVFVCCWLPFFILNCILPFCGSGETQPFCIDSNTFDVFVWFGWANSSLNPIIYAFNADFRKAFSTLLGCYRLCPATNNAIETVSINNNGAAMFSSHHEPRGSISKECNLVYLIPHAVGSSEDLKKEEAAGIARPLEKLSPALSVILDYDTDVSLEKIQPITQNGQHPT

[31] = target: T3, 5-hydroxytryptamine receptor 1A (Rattus norvegicus); test: Agonist activity of 5-HT1A receptor in Wistar rat dorsal raphe serotonergic neuron assessed as inhibition of firing at 1 nM to 1 uM by electrophysiological test; type: functional
[32] = target: 5-hydroxytryptamine receptor 3A (Homo sapiens) (UniProt P46098); test: Binding affinity to 5HT3 receptor at 10 uM by radioligand binding assay
[33] = target: 5-hydroxytryptamine receptor 6 (Homo sapiens) (UniProt P50406); test: Binding affinity to 5HT6 receptor at 10 uM by radioligand binding assay
[34] = target: 5-hydroxytryptamine receptor 1D (Homo sapiens) (UniProt P28221); test: Binding affinity to 5HT1D receptor at 10 uM by radioligand binding assay
5-hydroxytryptamine receptor 1D (Homo sapiens), sequence (P28221 whole entry): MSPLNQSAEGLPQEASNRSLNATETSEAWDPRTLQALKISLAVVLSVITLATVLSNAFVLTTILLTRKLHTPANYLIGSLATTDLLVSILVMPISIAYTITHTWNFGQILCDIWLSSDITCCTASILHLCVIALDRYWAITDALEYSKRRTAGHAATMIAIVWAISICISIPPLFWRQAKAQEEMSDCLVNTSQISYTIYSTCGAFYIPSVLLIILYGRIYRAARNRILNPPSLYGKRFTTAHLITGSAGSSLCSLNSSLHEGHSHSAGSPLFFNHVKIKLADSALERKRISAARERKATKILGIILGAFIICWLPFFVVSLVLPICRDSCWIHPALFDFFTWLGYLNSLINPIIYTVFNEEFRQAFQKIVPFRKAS

[35] = target: 5-hydroxytryptamine receptor 5A (Homo sapiens) (UniProt P47898); test: Binding affinity to 5HT5A receptor at 10 uM by radioligand binding assay
[36] = target: 5-hydroxytryptamine receptor 2A (Homo sapiens, UniProt P28223); test: Binding affinity to 5HT2A receptor by radioligand binding assay; settings: read-out: Ki(app)
5-hydroxytryptamine receptor 2A, sequence (P28223 whole entry): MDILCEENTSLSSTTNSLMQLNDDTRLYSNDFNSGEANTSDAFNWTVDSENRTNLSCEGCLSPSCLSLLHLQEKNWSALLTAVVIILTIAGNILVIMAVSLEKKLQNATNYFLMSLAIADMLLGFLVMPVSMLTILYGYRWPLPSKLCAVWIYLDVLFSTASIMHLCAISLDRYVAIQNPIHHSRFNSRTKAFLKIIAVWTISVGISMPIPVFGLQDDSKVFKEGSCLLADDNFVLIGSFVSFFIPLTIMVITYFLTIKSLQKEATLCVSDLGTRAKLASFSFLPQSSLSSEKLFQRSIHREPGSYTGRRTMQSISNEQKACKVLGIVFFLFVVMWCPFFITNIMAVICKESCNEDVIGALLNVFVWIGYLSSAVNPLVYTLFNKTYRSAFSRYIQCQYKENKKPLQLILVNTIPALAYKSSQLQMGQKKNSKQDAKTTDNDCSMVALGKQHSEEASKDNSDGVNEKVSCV

[37] = target: D(1B) dopamine receptor (Homo sapiens) (UniProt P21918); test: Binding affinity to dopamine D5 receptor at 10 uM by radioligand binding assay
[38] = target: T2, 5-hydroxytryptamine receptor 1A
Description: Binding affinity to 5HT1A receptor by radioligand binding assay

[39] = target: Beta-3 adrenergic receptor (Homo sapiens) (UniProt P13945); test: Binding affinity to adrenergic beta3 receptor at 10 uM by radioligand binding assay

Structure (SMILES): O=C(c1cnc2ccccc2n1)N(CCN1CC=C(c2ccccc2)CC1)c1ccccn1
log K [1]: 3.33
pKi [2]: 7.46
pKi [3]: 8.08

log K [1]: 3.48
pKi [2]: 6.09
pKi [3]: 7.79
Structure (SMILES): O=C(c1ccc2ccccc2c1)N(CCN1CCN(c2ccccc2)CC1)c1ccccn1

log K [1]: 2.61
pKi [2]: 7.82
pKi [3]: 8.61
Structure (SMILES): COc1ccccc1N1CCN(CCN(C(=O)c2cnc3ccccc3n2)c2ccccn2)CC1

Structure (SMILES): O=C(c1cccc2ccccc12)N(CCN1CC=C(c2ccccc2)CC1)c1ccccn1
log K [1]: 4.07
pKi [2]: 6.60
pKi [3]: 7.85

Structure (SMILES): O=C(c1ccc2ccccc2c1)N(CCN1CC=C(c2ccccc2)CC1)c1ccccn1
log K [1]: 4.36
pKi [2]: 6.54
pKi [3]: 8.08

log K [1]: 3.27
pKi [2]: 6.26
pKi [3]: 7.45
Structure (SMILES): O=C(c1cccc2ccccc12)N(CCN1CCN(c2ccccc2)CC1)c1ccccn1

log K [1]: 3.06
pKi [2]: 7.25
pKi [3]: 7.44
Structure (SMILES): O=C(c1cnc2ccccc2n1)N(CCN1CCN(c2ccccc2)CC1)c1ccccn1

log K [1]: 3.57
pKi [2]: 6.74
pKi [3]: 8.79
Structure (SMILES): COc1ccccc1N1CCN(CCN(C(=O)c2ccc3ccccc3c2)c2ccccn2)CC1

inhibition [4]: < 50%
pKi [5]: 6.49
inhibition [6]: < 50%
inhibition [7]: < 50%
pKi [8]: 6.70
inhibition [9]: < 50%
Activity [10]: 44%
inhibition [11]: < 50%
inhibition [12]: < 50%
pKi [13]: 5.98
inhibition [14]: < 50%
inhibition [15]: < 50%
log K [1]: 2.68
inhibition [16]: < 50%
inhibition [17]: > 50%
inhibition [18]: > 50%
pKi [19]: 6.23
inhibition [20]: < 50%
pKi [21]: 6.61
inhibition [22]: > 50%
inhibition [23]: < 50%
inhibition [24]: < 50%
inhibition [25]: < 50%
pKi [2]: 6.02
inhibition [26]: > 50%
inhibition [27]: < 50%
inhibition [28]: < 50%
inhibition [29]: < 50%
inhibition [30]: < 50%
inhibition [31]: inactive
inhibition [32]: < 50%
inhibition [33]: < 50%
inhibition [34]: < 50%
inhibition [35]: < 50%
pKi [36]: 6.74
pKi [3]: 8.92
inhibition [37]: < 50%
pKi [38]: 8.73
inhibition [39]: < 50%
Structure (SMILES): O=C(C1CCCCC1)N(CCN1CCN(c2ccccc2)CC1)c1ccccn1

Structure (SMILES): O=C(C1CCCCC1)N(CCN1CC=C(c2ccccc2)CC1)c1ccccn1
inhibition [4]: < 50%
pKi [5]: 6.98
inhibition [6]: < 50%
inhibition [7]: < 50%
pKi [8]: 7.22
inhibition [9]: < 50%
Activity [10]: 44%
inhibition [11]: < 50%
inhibition [12]: < 50%
pKi [13]: 6.53
inhibition [14]: < 50%
inhibition [15]: < 50%
log K [1]: 3.84
inhibition [16]: < 50%
inhibition [17]: > 50%
inhibition [18]: > 50%
pKi [19]: 7.41
inhibition [20]: < 50%
pKi [21]: 7.26
inhibition [22]: > 50%
inhibition [23]: < 50%
inhibition [24]: < 50%
inhibition [25]: < 50%
pKi [2]: 6.41
inhibition [26]: > 50%
inhibition [27]: < 50%
inhibition [28]: < 50%
inhibition [29]: < 50%
inhibition [30]: < 50%
inhibition [31]: inactive
inhibition [32]: < 50%
inhibition [33]: < 50%
inhibition [34]: < 50%
inhibition [35]: < 50%
pKi [36]: 7.27
pKi [3]: 9.29
inhibition [37]: < 50%
pKi [38]: 9.16
inhibition [39]: < 50%

log K [1]: 3.26
pKi [2]: 7.16
pKi [3]: 8.72
Structure (SMILES): COc1ccccc1N1CCN(CCN(C(=O)c2cccc3ccccc23)c2ccccn2)CC1

From ChEMBL document CHEMBL2163199, “Moderate chemical modifications of WAY-100635 improve the selectivity for 5-HT1A versus D4 receptors” (Bioorg Med Chem Lett, 2012)
